According to the supplement of paper PMC5908809:

Experiments:
[1] = system: normal NK cells expanded with K562-aAPC; test: percent inhibition of viability; higher = more inhibition; details: 72 h, IL-2 2.5 ng/mL
Protocol: (§1)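 Drug sensitivity and resistance testing on K562-aAPC-expanded normal NK cells: 5 concentrations (10-fold steps over a 10,000-fold range), 72 h at 37 °C, viability by CellTiter-Glo normalised to DMSO and benzethonium chloride controls; DSS from the fitted curve.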

DERL-7 (IL-2 2.5 ng/mL) [2] = test: as above; details: 72 h
IMC-1 (IL-2 20 ng/mL) [3] = test: as above; details: 72 h
KAI3 (IL-2 2.5 ng/mL) [4] = test: as above; details: 72 h
KHYG-1 (IL-2 2.5 ng/mL) [5] = test: as above; details: 72 h
NK-92 (IL-2 2.5 ng/mL) [6] = test: as above; details: 72 h
NK-YS (IL-2 2.5 ng/mL) [7] = test: as above; details: 72 h
NKL (IL-2 2.5 ng/mL) [8] = test: as above; details: 72 h
SNK-6 (IL-2 2.5 ng/mL) [9] = test: as above; details: 72 h
YT (IL-2 2.5 ng/mL) [10] = test: as above; details: 72 h
[11] = system: normal primary NK cells, pool 1 (3 donors) (IL-2 2.5 ng/mL); test: as above; details: 72 h
[12] = system: normal primary NK cells, pool 1 (3 donors), resting (IL-2 0 ng/mL); test: as above; details: 72 h
[13] = system: normal primary NK cells, pool 2 (3 donors) (IL-2 2.5 ng/mL); test: as above; details: 72 h
[14] = system: normal primary NK cells, pool 3 (3 donors) (IL-2 2.5 ng/mL); test: as above; details: 72 h
[15] = system: normal NK cells expanded with K562-aAPC; test: drug sensitivity score (DSS) (DSS units); higher = more sensitive; extreme values may be limits of the assay; details: 72 h; IL-2 2.5 ng/mL
Protocol: as §1

DERL-7 (IL-2 2.5 ng/mL) [16] = test: as above; details: 72 h
IMC-1 (IL-2 20 ng/mL) [17] = test: as above; details: 72 h
KAI3 (IL-2 2.5 ng/mL) [18] = test: as above; details: 72 h
KHYG-1 (IL-2 2.5 ng/mL) [19] = test: as above; details: 72 h
NK-92 (IL-2 2.5 ng/mL) [20] = test: as above; details: 72 h
NK-YS (IL-2 2.5 ng/mL) [21] = test: as above; details: 72 h
NKL (IL-2 2.5 ng/mL) [22] = test: as above; details: 72 h
SNK-6 (IL-2 2.5 ng/mL) [23] = test: as above; details: 72 h
YT (IL-2 2.5 ng/mL) [24] = test: as above; details: 72 h
[25] = system: normal primary NK cells, pool 1 (3 donors) (IL-2 2.5 ng/mL); test: as above; details: 72 h
[26] = system: normal primary NK cells, pool 1 (3 donors), resting (IL-2 0 ng/mL); test: as above; details: 72 h
[27] = system: normal primary NK cells, pool 2 (3 donors) (IL-2 2.5 ng/mL); test: as above; details: 72 h
[28] = system: normal primary NK cells, pool 3 (3 donors) (IL-2 2.5 ng/mL); test: as above; details: 72 h

CC/C(=C(\c1ccc(O)cc1)c1ccc(OCCN(C)C)cc1)c1ccccc1 [4-hydroxytamoxifen] (max concentration tested 10000 nM)
percent inhibition of viability [%]
Details | 1 nM | 10 nM | 100 nM | 1000 nM | 10000 nM
DERL-7 (IL-2 2.5 ng/mL) [2] | 7.02 | -0.93 | 4.62 | 16.8 | 79.2
IMC-1 (IL-2 20 ng/mL) [3] | -4.59 | -0.5 | 3.38 | 9.15 | 71.8
KAI3 (IL-2 2.5 ng/mL) [4] | 7.22 | 10.1 | 14.3 | 5.63 | 102
KHYG-1 (IL-2 2.5 ng/mL) [5] | -2.07 | 1.6 | 5.77 | 21.8 | 55.9
NK-92 (IL-2 2.5 ng/mL) [6] | 3.77 | -3.77 | 6.43 | 2.65 | 103
NK-YS (IL-2 2.5 ng/mL) [7] | -2.09 | 3.5 | 7.72 | 7.44 | 66.8
NKL (IL-2 2.5 ng/mL) [8] | 8.86 | -6.55 | 2.97 | 4.58 | 77.8
SNK-6 (IL-2 2.5 ng/mL) [9] | -1.81 | -16.4 | 0.89 | -17.1 | 93.9
YT (IL-2 2.5 ng/mL) [10] | 3.34 | -0.32 | -0.38 | 9.38 | 93.1
[1] | -7.32 | -3.75 | -0.57 | 7.65 | 64
[11] | -13 | 0.38 | -1.85 | -2.34 | 75.4
[12] | -6.81 | 0.21 | -12.3 | -11.9 | 88.8
[13] | -4 | -6.91 | 4.61 | 4.67 | 80.2
[14] | -0.81 | -2.52 | -1.24 | 3.05 | 49.3

Details | drug sensitivity score
DERL-7 (IL-2 2.5 ng/mL) [16] | 7.09
IMC-1 (IL-2 20 ng/mL) [17] | 5.5
KAI3 (IL-2 2.5 ng/mL) [18] | 6.52
KHYG-1 (IL-2 2.5 ng/mL) [19] | 5.42
NK-92 (IL-2 2.5 ng/mL) [20] | 6.14
NK-YS (IL-2 2.5 ng/mL) [21] | 4.91
NKL (IL-2 2.5 ng/mL) [22] | 4.98
SNK-6 (IL-2 2.5 ng/mL) [23] | 4.28
YT (IL-2 2.5 ng/mL) [24] | 6.69
[15] | 4.78
[25] | 3.97
[26] | 4.19
[27] | 5.13
[28] | 3.03

CC[C@H](C)C(=O)O[C@H]1C[C@@H](C)C=C2C=C[C@H](C)[C@H](CC[C@@H]3C[C@@H](O)CC(=O)O3)[C@H]21 [Lovastatin] (max concentration tested 10000 nM)
percent inhibition of viability [%]
Details | 1 nM | 10 nM | 100 nM | 1000 nM | 10000 nM
DERL-7 (IL-2 2.5 ng/mL) [2] | 2.67 | -1.74 | 3.23 | -2.63 | 7.15
IMC-1 (IL-2 20 ng/mL) [3] | 0.36 | -4.93 | -3.87 | -8.19 | 5.39
KAI3 (IL-2 2.5 ng/mL) [4] | 0.53 | 3.49 | -3.97 | 0.77 | 14
KHYG-1 (IL-2 2.5 ng/mL) [5] | 0.32 | -1.28 | -1.4 | 5.79 | 9.85
NK-92 (IL-2 2.5 ng/mL) [6] | -12 | -4.31 | 2.92 | -2.72 | 4.38
NK-YS (IL-2 2.5 ng/mL) [7] | -0.66 | -1.57 | -0.61 | 9.14 | 57.5
NKL (IL-2 2.5 ng/mL) [8] | -8.92 | -7.04 | -16.3 | -3.47 | 50.5
SNK-6 (IL-2 2.5 ng/mL) [9] | 9.2 | 3.13 | 18.8 | 3.99 | -5.4
YT (IL-2 2.5 ng/mL) [10] | 1.08 | 0.01 | -2.08 | 1.47 | 15
[1] | 0.56 | -5.1 | -9.52 | -6.29 | -8.93
[11] | -9.05 | -11.9 | -5.92 | 4.69 | 0.82
[12] | -2.63 | -14.8 | -15 | 10.9 | 16
[13] | -9.06 | -2.92 | -2.71 | -5.88 | -6.36
[14] | -7.92 | -10.5 | -6.75 | -10.6 | -16

Details | drug sensitivity score
DERL-7 (IL-2 2.5 ng/mL) [16] | 0
IMC-1 (IL-2 20 ng/mL) [17] | 0
KAI3 (IL-2 2.5 ng/mL) [18] | 0.22
KHYG-1 (IL-2 2.5 ng/mL) [19] | 0
NK-92 (IL-2 2.5 ng/mL) [20] | 0
NK-YS (IL-2 2.5 ng/mL) [21] | 4.64
NKL (IL-2 2.5 ng/mL) [22] | 2.39
SNK-6 (IL-2 2.5 ng/mL) [23] | 0
YT (IL-2 2.5 ng/mL) [24] | 0.36
[15] | 0
[25] | 0
[26] | 1.12
[27] | 0
[28] | 0
